How the values were obtained:
Assay in all cases: KINOMEscan competition binding
Conditions in all cases: compound 1.0 µM
[1] = tested on: BRAF (human), P15056 [V600E]
BRSK1 (human) = BRSK1 (human) (UniProt Q8TDC3)
BRSK2 (human) = BRSK2 (human) (UniProt Q8IWQ3)
CAMK2A (human) = CAMK2A (human) (UniProt Q9UQM7)
CAMKK1 (human) = CAMKK1 (human) (UniProt Q8N5S9)
CDK17 (human) = CDK17 (human) (UniProt Q00537)
CDKL3 (human) = CDKL3 (human) (UniProt Q8IVW4)
CIT (human) = CIT (human) (UniProt O14578)
DCLK2 (human) = DCLK2 (human) (UniProt Q8N568)
[2] = tested on: EGFR (human), P00533 [L861Q]
EPHB4 (human) = EPHB4 (human) (UniProt P54760)
[3] = tested on: FLT3 (human), P36888 [N841I]
GAK (human) = GAK (human) (UniProt O14976)
ITK (human) = ITK (human) (UniProt Q08881)
[4] = target: JAK1 JH1 catalytic (human) (UniProt P23458)
LIMK1 (human) = LIMK1 (human) (UniProt P53667)
MAP3K1 (human) = MAP3K1 (human) (UniProt Q13233)
MAP3K2 (human) = MAP3K2 (human) (UniProt Q9Y2U5)
MAP3K3 (human) = MAP3K3 (human) (UniProt Q99759)
MAP3K9 (human) = MAP3K9 (human) (UniProt P80192)
MAP4K5 (human) = MAP4K5 (human) (UniProt Q9Y4K4)
MAPK6 (human) = MAPK6 (human) (UniProt Q16659)
MAPKAPK2 (human) = MAPKAPK2 (human) (UniProt P49137)
MELK (human) = MELK (human) (UniProt Q14680)
MYLK (human) = MYLK (human) (UniProt Q15746)
NEK9 (human) = NEK9 (human) (UniProt Q8TD19)
NIM1 (human) = NIM1 (human) (UniProt Q8IY84)
OXSR1 (human) = OXSR1 (human) (UniProt O95747)
PDGFRA (human) = PDGFRA (human) (UniProt P16234)
PDPK1 (human) = PDPK1 (human) (UniProt O15530)
PHKG2 (human) = PHKG2 (human) (UniProt P15735)
PIP4K2B (human) = PIP4K2B (human) (UniProt P78356)
PIP5K1A (human) = PIP5K1A (human) (UniProt Q99755)
PLK4 (human) = PLK4 (human) (UniProt O00444)
PRKAA2 (human) = PRKAA2 (human) (UniProt P54646)
RPS6KA2 KD1 (human) = RPS6KA2 KD1 (human) (UniProt Q15349)
STK24 (human) = STK24 (human) (UniProt Q9Y6E0)
STK35 (human) = STK35 (human) (UniProt Q8TDR2)
STK4 (human) = STK4 (human) (UniProt Q13043)
[5] = target: TYK2 JH2 pseudokinase (human) (UniProt P29597)
TYK2 JH2 pseudokinase (human), sequence (P29597 whole entry, looked up): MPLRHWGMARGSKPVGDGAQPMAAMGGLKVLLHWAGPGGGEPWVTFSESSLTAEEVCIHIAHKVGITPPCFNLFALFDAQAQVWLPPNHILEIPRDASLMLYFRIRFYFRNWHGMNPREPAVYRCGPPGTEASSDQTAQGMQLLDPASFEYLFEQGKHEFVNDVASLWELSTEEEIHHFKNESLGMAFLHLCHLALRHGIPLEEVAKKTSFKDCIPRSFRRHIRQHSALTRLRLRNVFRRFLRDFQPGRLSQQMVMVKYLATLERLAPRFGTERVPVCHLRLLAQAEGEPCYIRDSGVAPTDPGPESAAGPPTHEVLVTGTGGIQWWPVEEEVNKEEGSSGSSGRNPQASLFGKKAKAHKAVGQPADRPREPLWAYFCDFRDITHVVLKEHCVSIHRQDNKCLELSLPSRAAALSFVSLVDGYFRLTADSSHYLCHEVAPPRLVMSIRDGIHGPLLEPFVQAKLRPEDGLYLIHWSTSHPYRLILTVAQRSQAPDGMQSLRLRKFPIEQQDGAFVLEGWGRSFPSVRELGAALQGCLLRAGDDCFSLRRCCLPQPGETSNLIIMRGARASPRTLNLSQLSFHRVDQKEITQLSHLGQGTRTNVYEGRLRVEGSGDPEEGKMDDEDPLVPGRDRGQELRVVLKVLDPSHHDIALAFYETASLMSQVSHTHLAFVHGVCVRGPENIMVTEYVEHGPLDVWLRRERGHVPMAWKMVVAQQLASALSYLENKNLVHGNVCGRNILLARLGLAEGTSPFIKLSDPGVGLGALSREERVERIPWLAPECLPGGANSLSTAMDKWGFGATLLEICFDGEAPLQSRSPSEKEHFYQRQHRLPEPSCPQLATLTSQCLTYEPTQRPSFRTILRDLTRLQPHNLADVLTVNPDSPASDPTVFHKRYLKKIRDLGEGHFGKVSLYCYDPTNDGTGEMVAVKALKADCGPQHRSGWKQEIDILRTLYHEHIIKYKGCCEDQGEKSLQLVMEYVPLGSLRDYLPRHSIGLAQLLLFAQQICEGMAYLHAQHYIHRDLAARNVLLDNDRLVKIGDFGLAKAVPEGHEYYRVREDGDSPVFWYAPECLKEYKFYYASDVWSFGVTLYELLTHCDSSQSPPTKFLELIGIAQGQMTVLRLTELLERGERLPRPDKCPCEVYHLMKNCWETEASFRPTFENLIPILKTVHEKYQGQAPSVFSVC

CAMK2A (human), sequence (Q9UQM7 whole entry, looked up): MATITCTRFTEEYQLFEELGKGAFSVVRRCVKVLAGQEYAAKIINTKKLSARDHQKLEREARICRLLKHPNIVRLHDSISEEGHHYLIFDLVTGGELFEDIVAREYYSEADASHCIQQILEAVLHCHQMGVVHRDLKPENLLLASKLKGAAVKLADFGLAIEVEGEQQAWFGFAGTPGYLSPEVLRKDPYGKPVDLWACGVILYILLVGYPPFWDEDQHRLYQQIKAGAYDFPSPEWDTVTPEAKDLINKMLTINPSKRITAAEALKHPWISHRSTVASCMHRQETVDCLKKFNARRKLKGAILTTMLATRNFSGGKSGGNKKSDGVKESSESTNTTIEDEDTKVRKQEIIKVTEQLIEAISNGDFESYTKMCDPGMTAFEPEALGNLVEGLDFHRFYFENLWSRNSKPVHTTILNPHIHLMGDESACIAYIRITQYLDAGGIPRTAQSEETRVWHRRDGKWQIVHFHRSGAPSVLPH
PIP5K1A (human), sequence (Q99755 whole entry, looked up): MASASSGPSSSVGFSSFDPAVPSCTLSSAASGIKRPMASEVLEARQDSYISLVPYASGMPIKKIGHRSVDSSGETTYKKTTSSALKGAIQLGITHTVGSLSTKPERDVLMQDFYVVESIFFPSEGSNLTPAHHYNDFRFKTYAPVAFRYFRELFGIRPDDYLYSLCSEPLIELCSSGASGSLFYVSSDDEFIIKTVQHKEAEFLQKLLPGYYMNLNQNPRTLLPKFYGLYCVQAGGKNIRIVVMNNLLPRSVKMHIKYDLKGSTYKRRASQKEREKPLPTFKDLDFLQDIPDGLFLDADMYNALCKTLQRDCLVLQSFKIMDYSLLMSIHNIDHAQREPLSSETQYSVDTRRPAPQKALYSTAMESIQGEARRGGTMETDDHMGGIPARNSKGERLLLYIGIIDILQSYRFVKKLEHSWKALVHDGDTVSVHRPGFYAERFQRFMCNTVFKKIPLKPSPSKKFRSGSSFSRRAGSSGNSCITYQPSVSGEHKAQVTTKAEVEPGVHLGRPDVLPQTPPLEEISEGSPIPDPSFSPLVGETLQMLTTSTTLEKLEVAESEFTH
NIM1 (human), sequence (Q8IY84 whole entry, looked up): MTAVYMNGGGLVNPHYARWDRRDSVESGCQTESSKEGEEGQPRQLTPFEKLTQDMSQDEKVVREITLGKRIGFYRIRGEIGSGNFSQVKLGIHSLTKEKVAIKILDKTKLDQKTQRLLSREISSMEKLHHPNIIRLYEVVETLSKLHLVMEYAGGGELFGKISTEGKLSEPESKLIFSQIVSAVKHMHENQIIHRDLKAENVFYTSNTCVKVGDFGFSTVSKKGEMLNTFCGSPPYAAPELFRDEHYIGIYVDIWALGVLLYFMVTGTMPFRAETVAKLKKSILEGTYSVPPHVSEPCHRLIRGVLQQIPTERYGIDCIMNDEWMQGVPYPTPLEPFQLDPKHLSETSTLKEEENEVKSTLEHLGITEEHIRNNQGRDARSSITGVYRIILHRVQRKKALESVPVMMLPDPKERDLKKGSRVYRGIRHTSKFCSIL
ITK (human), sequence (Q08881 whole entry, looked up): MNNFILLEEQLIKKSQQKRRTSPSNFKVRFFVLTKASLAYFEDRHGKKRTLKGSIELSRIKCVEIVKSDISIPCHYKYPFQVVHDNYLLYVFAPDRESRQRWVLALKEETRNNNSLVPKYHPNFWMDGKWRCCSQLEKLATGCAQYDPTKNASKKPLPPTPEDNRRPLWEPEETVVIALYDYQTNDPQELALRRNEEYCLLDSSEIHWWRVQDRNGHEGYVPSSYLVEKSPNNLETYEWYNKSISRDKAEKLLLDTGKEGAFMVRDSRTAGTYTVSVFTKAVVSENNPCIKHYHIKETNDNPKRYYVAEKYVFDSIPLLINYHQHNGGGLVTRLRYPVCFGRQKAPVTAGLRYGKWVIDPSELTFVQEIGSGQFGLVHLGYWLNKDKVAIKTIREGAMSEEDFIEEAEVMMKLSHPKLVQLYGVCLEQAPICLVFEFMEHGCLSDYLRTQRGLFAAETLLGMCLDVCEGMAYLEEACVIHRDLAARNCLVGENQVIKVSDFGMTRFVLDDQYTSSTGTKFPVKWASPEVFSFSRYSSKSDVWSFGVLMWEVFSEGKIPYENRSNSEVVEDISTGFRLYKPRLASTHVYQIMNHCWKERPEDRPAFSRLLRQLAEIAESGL
MAPKAPK2 (human), sequence (P49137 whole entry, looked up): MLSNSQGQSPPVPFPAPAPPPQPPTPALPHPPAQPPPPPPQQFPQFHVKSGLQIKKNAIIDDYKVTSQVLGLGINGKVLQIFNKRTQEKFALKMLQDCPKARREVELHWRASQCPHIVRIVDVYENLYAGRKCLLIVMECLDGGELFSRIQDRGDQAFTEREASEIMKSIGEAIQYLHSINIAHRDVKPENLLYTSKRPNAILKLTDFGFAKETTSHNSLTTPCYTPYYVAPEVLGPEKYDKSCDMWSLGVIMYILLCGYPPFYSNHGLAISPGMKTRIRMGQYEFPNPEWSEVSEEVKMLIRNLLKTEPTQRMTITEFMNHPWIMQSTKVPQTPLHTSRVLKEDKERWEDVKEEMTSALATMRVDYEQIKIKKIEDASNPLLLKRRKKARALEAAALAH
STK35 (human), sequence (Q8TDR2 whole entry, looked up): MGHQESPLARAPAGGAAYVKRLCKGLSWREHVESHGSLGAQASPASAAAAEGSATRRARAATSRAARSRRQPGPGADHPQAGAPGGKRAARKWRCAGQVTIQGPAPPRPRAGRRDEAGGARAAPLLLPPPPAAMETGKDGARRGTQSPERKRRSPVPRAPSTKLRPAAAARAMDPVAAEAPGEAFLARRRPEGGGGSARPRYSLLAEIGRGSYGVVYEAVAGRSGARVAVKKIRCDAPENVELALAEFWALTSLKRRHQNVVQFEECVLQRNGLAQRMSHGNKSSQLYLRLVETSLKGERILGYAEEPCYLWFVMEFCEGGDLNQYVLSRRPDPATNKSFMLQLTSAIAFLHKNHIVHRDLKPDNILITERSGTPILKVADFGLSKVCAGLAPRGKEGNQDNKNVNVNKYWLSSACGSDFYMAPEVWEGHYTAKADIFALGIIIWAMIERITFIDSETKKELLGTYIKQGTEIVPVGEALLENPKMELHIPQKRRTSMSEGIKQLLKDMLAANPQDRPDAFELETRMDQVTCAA
LIMK1 (human), sequence (P53667 whole entry, looked up): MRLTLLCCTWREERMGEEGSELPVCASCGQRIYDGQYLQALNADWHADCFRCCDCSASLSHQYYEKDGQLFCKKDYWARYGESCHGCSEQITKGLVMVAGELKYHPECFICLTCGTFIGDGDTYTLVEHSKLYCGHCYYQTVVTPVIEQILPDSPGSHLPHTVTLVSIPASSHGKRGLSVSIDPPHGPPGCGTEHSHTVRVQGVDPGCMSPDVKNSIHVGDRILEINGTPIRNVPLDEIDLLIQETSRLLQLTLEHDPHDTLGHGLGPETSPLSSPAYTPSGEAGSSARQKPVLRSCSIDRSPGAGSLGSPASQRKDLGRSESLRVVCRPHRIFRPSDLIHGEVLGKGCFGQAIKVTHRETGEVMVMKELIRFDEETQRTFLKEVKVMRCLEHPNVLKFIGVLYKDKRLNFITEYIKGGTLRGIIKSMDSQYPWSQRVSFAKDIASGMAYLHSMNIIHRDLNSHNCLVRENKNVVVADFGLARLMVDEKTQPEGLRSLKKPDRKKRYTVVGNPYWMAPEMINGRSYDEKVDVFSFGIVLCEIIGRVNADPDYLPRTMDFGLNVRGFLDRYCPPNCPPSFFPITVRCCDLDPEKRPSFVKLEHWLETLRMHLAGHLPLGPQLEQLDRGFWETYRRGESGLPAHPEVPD

SMILES: Nc1cc(C(F)(F)F)c(-c2cc(N3CCOCC3)nc(N3CCOCC3)n2)cn1
- inhibition of binding [1]: 17%
- inhibition of binding (BRSK1 (human)): 0%
- inhibition of binding (BRSK2 (human)): 0%
- inhibition of binding (CAMK2A (human)): 2%
- inhibition of binding (CAMKK1 (human)): 0%
- inhibition of binding (CDK17 (human)): 26%
- inhibition of binding (CDKL3 (human)): 0%
- inhibition of binding (CIT (human)): 0%
- inhibition of binding (DCLK2 (human)): 30%
- inhibition of binding [2]: 0%
- inhibition of binding (EPHB4 (human)): 4%
- inhibition of binding [3]: 6%
- inhibition of binding (GAK (human)): 6%
- inhibition of binding (ITK (human)): 0%
- inhibition of binding [4]: 38%
- inhibition of binding (LIMK1 (human)): 0%
- inhibition of binding (MAP3K1 (human)): 0%
- inhibition of binding (MAP3K2 (human)): 0%
- inhibition of binding (MAP3K3 (human)): 0%
- inhibition of binding (MAP3K9 (human)): 18%
- inhibition of binding (MAP4K5 (human)): 0%
- inhibition of binding (MAPK6 (human)): 0%
- inhibition of binding (MAPKAPK2 (human)): 0%
- inhibition of binding (MELK (human)): 0%
- inhibition of binding (MYLK (human)): 12%
- inhibition of binding (NEK9 (human)): 0%
- inhibition of binding (NIM1 (human)): 0%
- inhibition of binding (OXSR1 (human)): 17%
- inhibition of binding (PDGFRA (human)): 11%
- inhibition of binding (PDPK1 (human)): 0%
- inhibition of binding (PHKG2 (human)): 11%
- inhibition of binding (PIP4K2B (human)): 0%
- inhibition of binding (PIP5K1A (human)): 0%
- inhibition of binding (PLK4 (human)): 1%
- inhibition of binding (PRKAA2 (human)): 0%
- inhibition of binding (RPS6KA2 KD1 (human)): 2%
- inhibition of binding (STK24 (human)): 5%
- inhibition of binding (STK35 (human)): 0%
- inhibition of binding (STK4 (human)): 0%
- inhibition of binding [5]: 12%

— the kinase profiling compilation of Christmann-Franck et al. (2016)
